{
  "source": "patent US20220160751A1",
  "about": "“METHODS OF TREATMENT OF DISEASES AND DISORDERS ASSOCIATED WITH INCREASED TET LEVEL, INCREASED H19 LEVEL, INCREASED LEVEL OF TGF SIGNALING, OR ANY COMBINATION THEREOF” (YALE UNIVERSITY, priority 2019, published 2022)",
  "key": {"primary human HSCs": {"system": "primary human HSCs", "test": "qPCR of key pathway genes in primary human HSCs", "assay_type": "cell-based", "settings": "TGF-β1 2 ng/mL vs vehicle, 24 h", "method": "(§1) Total RNA was extracted from cultured cells or liver tissue samples using PureLink RNA Mini Kit (Ambion, 12183018A). 0.8 μg of total RNA was reverse transcribed to cDNA in a reaction volume of 10 μl using PrimeScript RT Reagent Kit (TAKARA, RR037A). Quantitative real-time PCR reactions were carried out using iQSYBRGreen (Bio-Rad) in a Bio-Rad iCycler. Gene expression levels were normalized against housekeeping genes HPRT1 and RPLP0."}, "[1]": {"system": "LX-2 human hepatic stellate cells", "test": "qPCR and immunoblotting of gene expression in LX-2 cells", "assay_type": "cell-based", "settings": "TGF-β1 5 ng/mL vs vehicle, 24 h", "method": "LX-2 human hepatic stellate cells (Yale Liver Center) were maintained in DMEM (Gibco, 11965-092) supplemented with 10% heat-inactivated fetal bovine serum (Gibco, 26140-079) and 1% PS (penicillin and streptomycin) at 37° C. in 5% humidified CO2 tissue culture incubator. Generally, cells were plated and transfected in a 24-well plate scale. For transfection with siRNA, let-7, or iLet7, 10 pmol of siTET3 (or siCon), let-7 (or miCon), or iLet7 (iCon) were mixed with 25 μl of OPTI-MEM (Gibco, 31985-070) by gentle pipetting. In parallel, 1 μl of Lipofectamine 3000 (ThermoFisher Scientific, L3000015) was mixed with 25 μl of OPTI-MEM. Then, the contents from the two tubes were mixed by gentle pipetting. After incubation for 5 min at RT, the resulting 50 μl solution was used to resuspend cell pellet (5×10^4 cells). After incubation at RT for 10 min, 450 μl of growth medium was added and the cell suspension was transferred into one well of a 24-well plate. For transfection with TET3-expression plasmid pTET3 (pcDNA-Flag-Tet3, Addgene plasmid #60940, (30)) or control vector, 5×10^4 cells per well were seeded in a 24-well plate the night before transfection. The next day, 0.75 μg of pTET3 (or Vec) were mixed with 1 μl of P3000 in 25 μl of OPTI-MEM by gentle pipetting. In parallel, 0.5 μl of Lipofectamine 3000 were mixed with 25 μl of OPTI-MEM. The contents from the two tubes were combined by gentle pipetting and incubated for 5 min at RT. The resulting 50 μl of transfection solution was added to each well of cells seeded in a 24-well plate the night before and from which the growth medium had been removed. After 6 h of incubation in a tissue culture incubator, 500 μl of growth medium were added to each well of cells. For TGF-β1 (Sigma, USA) treatment experiments, transfected cells were incubated in 500 μl of serum-free DMEM containing 5 ng/mL TGF-β1 (diluted with HCl) or HCl (as control) for 24 h or 48 h as indicated.\nas §1\nFor liver tissue samples, 5-10 mg of tissues were homogenized by sonication (Qsonica, Model Q125) in 150 μl of 2×SDS-sample buffer. Samples were immediately heated at 100° C. for 3 min with occasional vertexing. Then, 100 μl of 2×SDS-sample buffer was added to each sample and the 250 μl of tissue lysate were further homogenized by sonication and heated again at 100° C. for 3-5 min with vertexing once every 15 sec. Samples (further diluted at 1:1 with 2×SDS-sample buffer before loading) were loaded 5-10 μl per well onto a 4-15% gradient SDS gel, followed by Western blot analysis. Image J was used to quantify the protein bands."}},
  "note": "Entries after “also recorded” stand apart in the source; their conditions may differ.",
  "data": [
    {"substance": "TGF-β1: TGF-β1 (Sigma) used to stimulate LX-2 cells and primary human HSCs", "values": [
      {"measurement": "expression of TET2 and TET1", "setting": "primary human HSCs", "value": "decreased expression of TET2 and TET1"},
      {"measurement": "expression of TET3, TGFB1, TSP1, TGFBR2, FN1, and COL1A1", "setting": "primary human HSCs", "value": "increased expression of TET3, TGFB1, TSP1, TGFBR2, FN1, and COL1A1"},
      {"measurement": "LIN28B expression", "setting": "[1]", "value": "stimulated expression of LIN28B"},
      {"measurement": "SMAD3 phosphorylation (with expression of α-SMA, COL1A1, FN1 and TIMP1)", "setting": "[1]", "value": "concomitant increase in SMAD3 phosphorylation; also recorded: increased Smad3 phosphorylation"},
      {"measurement": "TET3 expression (mRNA and protein)", "setting": "[1]", "value": "upregulated TET3; also recorded: increased expression of TET3"},
      {"measurement": "expression of TGF-β1, TSP1, and TGFBR2", "setting": "[1]", "value": "also increased"},
      {"measurement": "let-7a and let-7b expression", "setting": "[1]", "value": "decreased expression of let-7a and let-7b"}
    ]}
  ]
}
